From PubChem BioAssay (NCI)
Where “and” joins values, the source holds several entries; their conditions need not be identical. Identical values can stand only once.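 Step 1: Grow cells in 96-well plates. Step 2: Expose to compound for 48 hours at 5 concentrations. Step 3: Interpolate endpoints linearly; if unreached, use highest concentration. GI50: concentration for 50% inhibition of growth. Definition used: TGI = concentration required for complete inhibition of growth.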

What was measured:
Experiment in all cases: inhibition of tumour cell growth, NCI panel, 48 h
MDA-MB-435 = system: MDA-MB-435
CAKI-1 renal = system: CAKI-1 renal
UO-31 renal = system: UO-31 renal
UACC-257 melanoma = system: UACC-257 melanoma
MCF7 breast = system: MCF7 breast
MOLT-4 leukemia = system: MOLT-4 leukemia
RPMI-8226 leukemia = system: RPMI-8226 leukemia
SR leukemia = system: SR leukemia
MDA-MB-231 breast = system: MDA-MB-231 breast
PC-3 prostate = system: PC-3 prostate

Compound	GI50 (MDA-MB-435)	TGI (MDA-MB-435)	GI50 (CAKI-1 renal)	TGI (CAKI-1 renal)	GI50 (UO-31 renal)	TGI (UO-31 renal)	GI50 (UACC-257 melanoma)	TGI (UACC-257 melanoma)	GI50 (MCF7 breast)	TGI (MCF7 breast)	GI50 (MOLT-4 leukemia)	TGI (MOLT-4 leukemia)	GI50 (RPMI-8226 leukemia)	TGI (RPMI-8226 leukemia)	GI50 (SR leukemia)	TGI (SR leukemia)	GI50 (MDA-MB-231 breast)	TGI (MDA-MB-231 breast)	GI50 (PC-3 prostate)	TGI (PC-3 prostate)
N#Cc1c(NCc2ccccc2)nc(NCc2ccccc2)c(C#N)c1-c1ccc(Cl)cc1	> 50 µM and 43.6 µM	> 100 µM	> 100 µM	> 100 µM	> 100 µM	> 100 µM	> 100 µM	> 100 µM	> 50 µM and 66.8 µM	> 100 µM	> 50 µM and 76.9 µM	> 100 µM	> 50 µM and 50.3 µM	> 100 µM	> 50 µM and 19.7 µM	> 50 µM and 58.5 µM	> 50 µM and 31.9 µM	> 100 µM	> 50 µM and 61.2 µM	> 100 µM
Cc1ccc(F)c(NC(=O)Nc2ccc(-c3cccc4[nH]nc(N)c34)cc2)c1	2.68 µM and 2.88 µM	11 µM and > 10 µM	2.83 µM and 3.85 µM	10.1 µM and > 10 µM	2.79 µM and 2.91 µM	11.3 µM and > 10 µM	4.39 µM and 5.34 µM	16.7 µM and > 10 µM	2.29 µM and 2.07 µM	8.4 µM and > 10 µM	3.13 µM and 3.08 µM	> 42.9 µM	2.27 µM and 2.39 µM	6.11 µM and 6.27 µM	2.62 µM and 1.87 µM	8.37 µM and 5.45 µM	4.31 µM and 3.39 µM	16.4 µM and > 10 µM	4.18 µM and 4.54 µM	17.7 µM and > 10 µM
CC1CCCC(C(=O)CC2CC(=O)NC(=O)C2)C1=O (stereo not drawn)	–	> 100 µM	–	> 100 µM	–	> 100 µM	–	> 100 µM	–	> 100 µM	–	> 100 µM	–	> 100 µM	–	> 100 µM	–	> 100 µM	–	> 100 µM
CCCCCCCCCCCCCC[n+]1ccccc1	0.549 µM	1.87 µM	0.833 µM	5.43 µM	1.42 µM	4.82 µM	0.93 µM	3.07 µM	0.489 µM	2.66 µM	0.618 µM	2.38 µM	0.303 µM	1.33 µM	0.499 µM	2.94 µM	0.771 µM	2.52 µM	0.204 µM	0.774 µM
N#CC1C[C@@H]2CC3(CCC2CN1C(=O)c1ccccc1)OCCO3 (stereo partly drawn)	> 100 µM	> 100 µM	> 100 µM	> 100 µM	–	> 100 µM	–	> 100 µM	> 100 µM	> 100 µM	–	> 100 µM	–	> 100 µM	–	> 100 µM	> 100 µM	> 100 µM	> 100 µM	> 100 µM
O=C(Cn1c(C(=O)c2ccc(Cl)cc2)nc(-c2ccc(Cl)cc2)c1-c1ccc(Cl)cc1)c1ccccc1	> 100 µM	> 100 µM	> 100 µM	> 100 µM	> 100 µM	> 100 µM	> 100 µM	> 100 µM	> 100 µM	> 100 µM	> 100 µM	> 100 µM	> 100 µM	> 100 µM	> 100 µM	> 100 µM	> 100 µM	> 100 µM	> 100 µM	> 100 µM
C/C(CCC(=O)O)=N/Nc1ccc([N+](=O)[O-])cc1	4.37 µM	> 100 µM	3.69 µM	> 100 µM	3.27 µM	> 100 µM	70.6 µM	> 100 µM	24.4 µM	> 100 µM	4.27 µM	> 100 µM	57.7 µM	> 100 µM	9.3 µM	> 100 µM	7.16 µM	> 100 µM	11.5 µM	> 100 µM
C[C@@H](N)COc1ccc(-c2cnc3ccc(N[C@H](C)c4cccc(F)c4)nn23)cc1	1.47 µM	3.07 µM	2.87 µM	11 µM	1.94 µM	7.81 µM	1.62 µM	3.11 µM	1.24 µM	2.69 µM	2 µM	6.44 µM	1.81 µM	5.3 µM	0.0715 µM	1.8 µM	1.48 µM	3.19 µM	1.62 µM	9.39 µM
Oc1c(C(Nc2ccccn2)c2cccc(Oc3ccccc3)c2)ccc2cccnc12 (stereo not drawn)	0.496 µM	16.4 µM	0.319 µM	10 µM	0.382 µM	3.11 µM	1.32 µM	15 µM	0.416 µM	13.9 µM	0.436 µM	> 100 µM	0.6 µM	84 µM	0.508 µM	> 100 µM	0.617 µM	19.5 µM	0.483 µM	20.1 µM
CCn1c(-c2nonc2N)nc2c(C#CC(C)(C)O)ncc(OC3CCNCC3)c21	13.6 µM	> 25 µM	> 25 µM	> 25 µM	> 25 µM	> 25 µM	> 25 µM	> 25 µM	3.93 µM	> 22.5 µM	6.32 µM	> 25 µM	> 25 µM	> 25 µM	9.64 µM	> 21.3 µM	20 µM	> 25 µM	7.58 µM	> 25 µM
CN1CCN(C(=O)[C@@]2(C)CC[C@]3(C)CC[C@]4(C)C(=CC[C@@H]5[C@@]6(C)CCC(=O)NC(C)(C)[C@@H]6CC[C@]54C)[C@@H]3C2)CC1	1.62 µM	3.3 µM	2.36 µM	6.48 µM	1.19 µM	2.51 µM	2.1 µM	4.72 µM	1.83 µM	4.17 µM	1.52 µM	3.66 µM	1.43 µM	3.74 µM	0.391 µM	4.47 µM	1.7 µM	3.47 µM	0.813 µM	2.42 µM
COC(=O)c1ccc2nc(-c3cc4ccccc4n3C)n(CCCCOc3cc4c(cc3OC)C(=O)N3CCC[C@H]3C=N4)c2c1	0.677 µM	1.77 µM	0.953 µM	4.85 µM	0.389 µM	2.19 µM	1.17 µM	3.78 µM	0.292 µM	1.41 µM	0.298 µM	–	0.345 µM	> 100 µM	0.643 µM	> 100 µM	0.366 µM	2.17 µM	0.457 µM	10.3 µM
N#CC(C#N)=CNCCN1CCN(C=C(C#N)C#N)CC1	–	> 100 µM	–	> 100 µM	–	> 100 µM	–	> 100 µM	–	> 100 µM	–	> 100 µM	–	> 100 µM	–	> 100 µM	–	> 100 µM	–	> 100 µM
CS(=O)(=O)N1CCC(n2c(=O)c(Oc3ccc(F)cc3F)cc3cnc(NC4CCOCC4)nc32)CC1	> 25 µM	> 25 µM	> 25 µM	> 25 µM	16.9 µM	> 25 µM	> 25 µM	> 25 µM	> 25 µM	> 25 µM	> 25 µM	> 25 µM	> 17.5 µM	> 25 µM	> 25 µM	> 25 µM	> 25 µM	> 25 µM	> 25 µM	> 25 µM
Cc1cc(Cl)nc2ccc(Cc3ccc4nc(Cl)cc(C)c4c3)cc12	–	> 100 µM	–	> 100 µM	–	> 100 µM	–	> 100 µM	–	91.5 µM	–	> 100 µM	–	> 100 µM	–	> 100 µM	–	> 100 µM	–	> 100 µM
COC(=O)Oc1nn(C(=O)OC)c(=O)c2ccccc12	–	> 100 µM	–	> 100 µM	–	> 100 µM	–	> 100 µM	–	> 100 µM	–	> 100 µM	–	> 100 µM	–	> 100 µM	–	> 100 µM	–	> 100 µM
O=C(/C=C/C12c3ccccc3C(c3ccccc31)C1C(=O)N(c3ccc(Cl)cc3)C(=O)C12)c1ccccn1 (stereo not drawn)	0.301 µM	0.981 µM	1.07 µM	4.95 µM	0.178 µM	0.399 µM	0.39 µM	1.96 µM	0.313 µM	> 23 µM	0.322 µM	> 100 µM	0.234 µM	0.682 µM	0.241 µM	> 100 µM	0.318 µM	2.23 µM	0.331 µM	1.87 µM
CCCCCCC1N=C(N)N=C(N)N1c1cccc(Cl)c1 (stereo not drawn)	0.0479 µM	13.2 µM	21.8 µM	> 78.5 µM	31.5 µM	97.5 µM	6.37 µM	29.5 µM	0.368 µM	12.7 µM	0.94 µM	17.8 µM	0.904 µM	22 µM	0.748 µM	> 42.7 µM	1.93 µM	22.5 µM	0.0576 µM	16 µM
Cc1ccc(-c2nc3nc(-c4ccc(F)cc4)nc(N4CCNCC4)c3o2)cc1	1.78 µM	3.24 µM	1.55 µM	2.92 µM	1.46 µM	2.79 µM	18.4 µM	37.6 µM	1.66 µM	3.51 µM	2.1 µM	4.42 µM	2.36 µM	5.49 µM	0.323 µM	1.13 µM	1.86 µM	3.63 µM	1.91 µM	4.69 µM
CCc1ccccc1NC(=O)C(C#N)C1=C(Cl)C(=O)c2ccccc2C1=O (stereo not drawn)	–	63 µM	–	45.6 µM	–	26.6 µM	–	31.8 µM	–	57 µM	–	> 100 µM	–	77.9 µM	–	> 100 µM	–	22 µM	–	33 µM
Cc1ccc([P+](Cc2ccccc2)(c2ccccc2)c2ccccc2)cc1	0.61 µM	3.42 µM	5.83 µM	> 100 µM	10.3 µM	67.7 µM	0.98 µM	4.8 µM	1.92 µM	> 100 µM	3.32 µM	14 µM	0.6 µM	6.63 µM	2.66 µM	16.5 µM	2.17 µM	19.2 µM	1.53 µM	> 100 µM
Cc1ccc([Se](=C(C(=O)c2ccccc2)C(=O)c2ccccc2)c2ccc(C)cc2)cc1	–	55 µM	–	57.7 µM	–	> 100 µM	–	53.1 µM	–	> 100 µM	–	43.3 µM	–	22.4 µM	–	33.2 µM	–	35.2 µM	–	82.5 µM
O=C1Nc2ccccc2/C1=C\c1c(-c2ccccc2)nc2sccn12	0.354 µM	0.943 µM	1.29 µM	4.74 µM	2.55 µM	13.3 µM	14.9 µM	41 µM	2.95 µM	22.7 µM	1.1 µM	> 37.5 µM	0.909 µM	3.74 µM	0.309 µM	0.976 µM	1.39 µM	6.18 µM	1.95 µM	17.4 µM
CCN1CCC(CC(=O)Nc2n[nH]c3nnc(-c4cccc(F)c4F)cc23)CC1	> 25 µM	> 25 µM	> 25 µM	> 25 µM	> 25 µM	> 25 µM	> 25 µM	> 25 µM	4.11 µM	> 25 µM	> 25 µM	> 25 µM	> 25 µM	> 25 µM	> 25 µM	> 25 µM	> 25 µM	> 25 µM	> 25 µM	> 25 µM
CS(=O)(=O)CCNCc1ccc(-c2ccc3ncnc(Nc4ccc(OCc5cccc(F)c5)c(Cl)c4)c3c2)o1	> 10 µM and 4.38 µM and 7.84 µM	> 10 µM and > 30.8 µM and 34.1 µM	–	> 10 µM and > 25 µM and 27.7 µM	2.39 µM and 0.807 µM and 1.08 µM	> 10 µM and > 33 µM and 26.2 µM	> 10 µM and 1.97 µM and 3.1 µM	> 10 µM and 3.75 µM and 6.52 µM	7.66 µM and 2.18 µM and 2.11 µM	> 10 µM and 9.12 µM and 6.69 µM	4.54 µM and 2.93 µM and 2.94 µM	> 10 µM and > 100 µM and 21.9 µM	3.54 µM and 2.82 µM and 1.58 µM	> 10 µM and > 29.4 µM and 7.05 µM	2.75 µM and 2.57 µM and 2.28 µM	> 10 µM and 5.8 µM and 11.3 µM	> 10 µM and 4.14 µM and 9.07 µM	> 10 µM and > 100 µM and 29.5 µM	9.68 µM and 5.3 µM and 4.45 µM	> 10 µM and > 100 µM and 46.4 µM
Cc1ccccc1C1=C(c2cn(C)c3ccccc23)C(=O)NC1=O	> 21.5 µM	> 25 µM	10.2 µM	> 25 µM	> 25 µM	> 25 µM	> 25 µM	> 25 µM	9.2 µM	> 25 µM	10.8 µM	> 25 µM	20 µM	> 25 µM	7.78 µM	> 25 µM	21.5 µM	> 25 µM	9.74 µM	> 25 µM
COc1cc(OC)cc(Oc2cnc3cc(N)cc(N)c3n2)c1	2.87 µM	6.76 µM	13 µM	27.7 µM	22.3 µM	46.8 µM	18 µM	33.7 µM	20.5 µM	49.3 µM	5.37 µM	20.7 µM	24 µM	53.7 µM	11.3 µM	26.1 µM	6.56 µM	21 µM	24.7 µM	56 µM
